{"source": "patent US4889871A", "about": "“Alkoxy-substituted dihydrobenzopyran-2-carboxylate derivatives” (G. D. Searle & Co., priority 1988, dated 1989)", "key": {"guinea pig ileum": {"target": "T1, guinea pig ileum (Cavia porcellus, UniProt Q2NNR5)", "T1 construct": "from tissue; host or cells: guinea pig ileum segments", "T1 sequence (Q2NNR5 1-340)": "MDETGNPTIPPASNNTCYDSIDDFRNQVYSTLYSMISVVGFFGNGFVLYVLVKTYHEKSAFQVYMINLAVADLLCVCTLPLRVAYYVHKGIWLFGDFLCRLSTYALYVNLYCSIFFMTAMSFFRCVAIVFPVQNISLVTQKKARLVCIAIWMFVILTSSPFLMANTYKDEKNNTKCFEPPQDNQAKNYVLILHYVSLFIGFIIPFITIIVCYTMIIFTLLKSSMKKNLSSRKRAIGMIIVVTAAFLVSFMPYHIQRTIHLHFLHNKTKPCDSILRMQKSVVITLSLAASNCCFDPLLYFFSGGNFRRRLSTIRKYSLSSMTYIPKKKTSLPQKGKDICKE", "assay": "LTD4 antagonism in guinea pig ileum (contraction)", "method": "Fresh segments of guinea pig ileum were suspended in 2 ml. tissue baths containing oxygenated modified Tyrodes solution. […] The ileum segments were washed and rested between exposures to agonist. Following this, the tissues were incubated with a single concentration of test compound and the agonist dose-response procedure was repeated. The dose ration is a measure of the antagonist's ability to shift the agonist dose-response curve to the right. It is derived as the concentration of agonist necessary to reach a given response level in the present (A') versus the absence (A) of antagonist. For example, if the test concentration of compound had no effect on the agonist-induced response (A'=A) the dose-ratio would approximate 1. […] One dose-ratio value is determined for each strip of ileum used to test antagonist. […] Schild analysis examines the linearity of the function described by the dose-ratios written as log (A'/A) versus antagonist concentration. If linearity is confirmed and the slope approximates -1, inhibition is considered to be competitive. […] This value is considered to be a measure of the affinity of the competitive antagonist."}, "human neutrophils": {"tested_on": "human neutrophils", "assay": "Modified Boyden chamber chemotaxis (LTB4, human neutrophils)", "type": "cell-based", "details": "Neutrophil", "method": "Human neutrophils were isolated from citrated peripheral blood using standard techniques of dextran sedimentation, followed by centrifugation on Histopaque® sterile solution (Sigma) or Ficoll-paque® (Pharmacia) and hypotonic lysis of erythrocytes. A final cell suspension of 3.4×10^6 neutrophils/ml of HEPES-buffered Hanks balanced salt solution (HBSS, pH 7.3) was added to the upper well (0.8 ml) of a modified Boyden chamber (blind well). The lower well (0.2 ml), separated by a polycarbonate membrane (Nuleopore Corp.), contained HBSS or 3×10^-8 M LTB4 in the presence of absence of test compound. Following a 90 minute incubation at 37° C. in 5% CO2 -95% air, cells from the lower well were lysed and nuclei counted in a Model S-Plus-IV Coulter Counter. Percent inhibition was calculated from cell counts corrected for random migration by subtracting the mean of the HBSS control."}, "LTD4 receptor": {"target": "T2, LTD4 receptor (Cavia porcellus, UniProt Q2NNR5)", "T2 construct": "from tissue; host or cells: lung membranes of male Hartley guinea pigs", "T2 sequence (Q2NNR5 1-340)": "T1 sequence (Q2NNR5 1-340)", "assay": "LTD4 receptor binding assay using guinea pig lung membrane preparations", "method": "MEMBRANE PREPARATIONS: For each membrane preparation, 10-11 male Hartley guinea pigs, weighing less than 350 gm, were sacrificed by guillotine. The lungs were rapidly removed and placed in ice-cold 50 mM Trisma 7.0 buffer. After all the lungs were collected, each was probed free of bronchial tissue to at least the level of tertiary branching as observed through a dissecting lamp. The tissue was minced with a razor blade on a damp paper towel and placed into fresh ice-cold Trisma 7.0 buffer. When all the tissues had been processed, they were pooled, drained and weighed. Nine volumes of cold buffer were added and the tissue was polytroned for 6-10 second bursts with a 1 minute cool down period in an ice bath between each burst. The homogenate was filtered through a gauze pad and centrifuged at 1085× g for 15 minutes at 4° C. Supernatants were saved and centrifuged at 40,000× g for 20 minutes at 4° C. This time, supernatants were discarded and the pellets were resuspended in 30-35 ml fresh Trisma 7.0 buffer by 1-10 second bursts with the polytron. The materials were centrifuged again at 40,000× g. Supernatants were again discarded. Each pellet was resuspended again with approximately 7 ml buffer. All this material was pooled into a 100 ml polypropylene container and stirred with a magnetic stirring bar. The tubes were rinsed with small amounts of buffer and the rinse was added to the membrane preparation. The homogenized membranes were aliquoted into 1.5 ml microfuge tubes and frozen at -70° C. Three aliquots were submitted for protein determinations by FPB (fluorescamine protein binding) assay.\nUnless otherwise indicated, all binding experiments were performed in a final incubation volume of 250 μl. […] Both materials were received in solutions. […] Both solutions were brought to appropriate assay concentrations by dilution in assay buffer consisting of 50 mM Trisma 7.4 with 5 mM L-cysteine and 20 mM CaCl2. Membranes were also diluted with this assay buffer. […] Diluent was added to all other appropriate control tubes. Incubations were conducted for 30 minutes at 25° C. in a shaking water bath. Termination of the reaction was achieved by pouring the incubate over 2.5 cm Whatman GF/C filters soaked in assay buffer and set over the ports of Millipore filter vacuum manifolds. Filters were rinsed with 4 ml ice cold assay buffer 3 times. The filters were removed, placed in 10 ml Aquasol scintillation cocktail and allowed to cool in the dark for 2 hours prior to counting. All samples were corrected for background and isotope decay before converting DPM determination to mass.\nThese values were logit-transformed and linear regression was performed on the dose-response data. All dose-response sets used to calculate IC50 values contained data from 3-6 compound concentrations. […] IC50 values were calculated from the regression equation for the line.\nmale guinea pig lung homogenate which was aliquoted and stored at\n-70° C. The particular preparation used to test the compounds of\nProtein concentrations in these assays were adjusted\nto provide aproximately 0.1 nM receptor in the presence of lnM ^3\nHLTD4. Incubation was conducted for 30 min.\nat 24° C. and filtration methods were used to separate bound from\ntested were intially solubilized in DMSO. Each compound was evaluated at\ndose of 10 μM (10^-5 M) in triplicate in 2 separate assays. The"}, "LTB4 receptor": {"target": "T3, LTB4 receptor (Homo sapiens, UniProt Q15722)", "T3 construct": "Neutrophils were purified from venous blood of normal human donors; endogenous in cells; host or cells: purified human blood neutrophils (intact cells)", "T3 sequence (Q15722 whole entry)": "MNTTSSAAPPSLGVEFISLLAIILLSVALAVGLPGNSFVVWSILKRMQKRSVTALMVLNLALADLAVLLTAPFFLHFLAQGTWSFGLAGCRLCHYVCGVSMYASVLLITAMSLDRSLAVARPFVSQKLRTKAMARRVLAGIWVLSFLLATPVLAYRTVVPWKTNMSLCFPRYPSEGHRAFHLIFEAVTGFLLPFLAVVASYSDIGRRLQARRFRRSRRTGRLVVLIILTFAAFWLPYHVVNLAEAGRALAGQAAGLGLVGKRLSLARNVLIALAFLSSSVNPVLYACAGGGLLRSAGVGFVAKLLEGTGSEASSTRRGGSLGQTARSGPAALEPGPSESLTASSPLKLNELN", "assay": "LTB4 receptor binding assay ((3H) LTB4, human neutrophils)", "method": "Neutrophils (4-6×10^6) in 1 ml Hanks' balanced salt solution containing 10 mM HEPES buffer (HBSS), pH 7.4 and 30 μM nordihydroguaiaretic acid were incubated with 0.6×10^-9 M (^3 H) LTB4 in the presence or absence of test compounds. The incubation was carried out at 0° C. for 45 minutes and terminated by adding 5 ml of ice-cold HBSS followed by rapid filtration of incubation mixture under vacuum through GF/C glass fiber filters. The filters were further washed with 10 ml HBSS and radioactivity was determined. Specific binding was defined as the difference between total binding and nonspecific binding which was not displaced by 10^-7 M unlabeled LTB4. All data refer to specific binding."}, "[1]": {"details": "relative to Compound III where --OCH3 is replaced with --OH"}}, "note": "Read-outs that look alike come from different tables or passages of the source."}
{"smiles": "CCCc1c(OCCCOc2ccc(C(C)=O)c(OC)c2CCC)ccc2c1OC(C(=O)O)CC2", "note": "(stereo not drawn) [Example 1, 7-[3-(4-acetyl-3-methoxy-2-propylphenoxy)propoxy]-3,4-dihydro-8-propyl-2H-1-benzopyran-2-carboxylic acid]", "values": [{"measurement": "Kb", "setting": "guinea pig ileum; read-out: Guinea Pig Ileum Contraction pA2 (converted)", "value": "≥ 316", "unit": "nM"}, {"measurement": "less active as an LTD4 antagonist in the guinea pig ileum smooth muscle contraction test", "setting": "guinea pig ileum; [1]", "value": "at least 10 ×"}, {"measurement": "IC50", "setting": "human neutrophils", "value": 3000, "unit": "nM"}, {"measurement": "Receptor Binding LTD4 IC50", "setting": "LTD4 receptor; Table 1, results are from Table 3, 10^-5 M", "value": "Inactive"}, {"measurement": "inhibition at 10 µM", "setting": "LTD4 receptor; read-out: LTD4 Receptor Binding Activity", "value": "< 45", "unit": "%"}, {"measurement": "inhibition at 10 µM", "setting": "LTD4 receptor; read-out: LTD4 Receptor Binding Percent Inhibition, Test #1, triplicate, 30 min, 24° C.", "value": 4.07, "unit": "%"}, {"measurement": "inhibition at 10 µM", "setting": "LTD4 receptor; read-out: LTD4 Receptor Binding Percent Inhibition, Test #2, triplicate, 30 min, 24° C.", "value": 16.4, "unit": "%"}, {"measurement": "inhibition at 0.3 µM", "setting": "LTB4 receptor; 0.75 h, read-out: LTB4 Receptor Binding (percent at stated concentration)", "value": 50, "unit": "%"}, {"measurement": "more potent than the --OH compound in LTB4 receptor binding", "setting": "LTB4 receptor; [1]", "value": "about 5 ×"}]}
